The text below walks through data of patent US8008322B2, “Substituted pyrazolopyridines, compositions containing them, method for the production thereof, and their use” (Aventis Pharma S.A., priority 2005, dated 2011).

Structures are written as SMILES.

One data set addresses T1, human Tie2 (Homo sapiens, UniProt Q02763).
T1 construct: the amino acids of the intracellular domain 776-1124; made in house; host or cells: baculovirus expression system (pFastBacGT)
Kind of data set: Tie2 phosphorylation of PLC inhibition, FlashPlate radioactivity. It is filed as biochemical. The note with it: GST-Tie2 intracellular domain 776-1124, substrate GST-PLC, 33P-ATP, one hour at 37° C.; read-out: TIE2 IC 50. The procedure: This sequence was introduced into a pFastBacGT baculovirus expression vector in the form of a GST fusion protein. The inhibitory effect of the molecules is determined in a test of phosphorylation of PLC with Tie2 in the presence of GST-Tie2 purified to about 80% homogeneity. The substrate is composed of the SH2-SH3 fragments of PLC expressed in the form of a GST fusion protein.
The kinase activity of Tie2 is measured in a MOPS 20 mM pH 7.2 buffer, containing 10 mM MgCl2, 10 mM MnCl2, 1 mM DTT, 10 mM of glycerophosphate. In a 96-well FlashPlate plate maintained on ice, a reaction mixture is deposited, composed of 70 μL of kinase buffer containing 100 ng of enzyme GST-Tie2 per well. Next, 10 μL of the test molecule diluted in DMSO to a maximum concentration of 10% are added. For a given concentration, each measurement is performed four times. […] After incubation for one hour at 37° C., the reaction is stopped by adding 1 volume (100 μl) of EDTA 200 mM. After removal of the incubation buffer, the wells are washed three times with 300 μL of PBS. The radioactivity is measured on a MicroBeta1450 Wallac.
The inhibition of the Tie2 activity is calculated and expressed as a percentage of inhibition relative to the control activity determined in the absence of compound.

The next data set has as its target T2, human FAK (Homo sapiens, UniProt Q05397).
T2 construct: The whole cDNA of human FAK, the N-terminal end of which has been labelled with histidine; made in house; host or cells: baculovirus expression system (pFastBac HTc)
Put plainly: FAK autophosphorylation inhibition, time-resolved fluorescence test (HTRF). It counts as biochemical. The note with it: 15 μM ATP, 1 hour at 37° C., read-out: FAK IC 50. The procedure: The inhibitory activity of the compounds on FAK is determined by measuring the inhibition of autophosphorylation of the enzyme using a time-resolved fluorescence test (HTRF).
The whole cDNA of human FAK, the N-terminal end of which has been labelled with histidine, was cloned in a pFastBac HTc baculovirus expression vector. The protein was expressed and purified to about 70% homogeneity.
The kinase activity is determined by incubating the enzyme (6.6 μg/mL) with different concentrations of test compound in a 50 mM Hepes pH=7.2, 10 mM MgCl2, 100 μm Na3VO4, 15 μM ATP buffer for 1 hour at 37° C. The enzymatic reaction is stopped by adding Hepes pH=7.0 buffer containing 0.4 mM KF, 133 mM EDTA, 0.1% BSA and the labelling is performed, for 1 to 2 hours at room temperature, by adding to this buffer an anti-Histidine antibody labelled with XL665 and a tyrosine phosphospecific monoclonal antibody conjugated to europium cryptate (Eu—K). The characteristics of the two fluorophores are available in G. Mathis et al., Anticancer Research, 1997, 17, pages 3011-3014. The energy transfer from the excited europium cryptate to the acceptor XL665 is proportional to the degree of autophosphorylation of FAK. The long-lasting signal specific for XL-665 is measured in a Packard Discovery plate counter. All the tests are performed in duplicate and the average of the two tests is calculated. The inhibition of the autophosphorylation activity of FAK with compounds of the invention is expressed as a percentage of inhibition relative to a control whose activity is measured in the absence of test compound. To calculate the percentage inhibition, the ratio [signal at 665 nm/signal at 620 nm] is considered.
(TR-FRET usually uses a lanthanide donor and a delayed reading to cut background.)

Another data set has as its target T3, human KDR enzyme (Homo sapiens, UniProt P35968).
T3 construct: The cytoplasmic domain of the human KDR enzyme was cloned in the form of a GST fusion protein; GST; made in house; host or cells: SF21 insect cells (baculovirus, pFastBac)
Put plainly: KDR substrate phosphorylation inhibition, scintillation technique. It is filed as biochemical. As to conditions: GST-KDR cytoplasmic domain, substrate SH2-SH3 fragment of PLCγ, 33P-ATP, one hour at 37° C.; read-out: KDR IC 50. How it is done:
The inhibitory effect of the compounds is determined in an in vitro test of phosphorylation of substrate with the enzyme KDR via a scintillation technique (96-well plate, NEN).
The cytoplasmic domain of the human KDR enzyme was cloned in the form of a GST fusion protein in the pFastBac baculovirus expression vector.
The KDR kinase activity is measured in a 20 mM MOPS, 10 mM MgCl2, 10 mM MnCl2, 1 mM DTT, 2.5 mM EGTA, 10 mM b-glycerophosphate, pH=7.2 buffer, in the presence of 10 mM MgCl2, 100 μm Na3VO4, 1 mM NaF. 10 μl of the compound are added to 70 μL of kinase buffer containing 100 ng of KDR enzyme at 4° C. The reaction is initiated by adding 20 μL of solution containing 2 μg of substrate (SH2-SH3 fragment of PLCγ expressed in the form of a GST fusion protein), 2 μCi of γ^33P[ATP] and 2 μm of cold ATP. After incubation for one hour at 37° C., the reaction is stopped by adding 1 volume (100 μl) of 200 mM EDTA. The incubation buffer is removed, and the wells are washed three times with 300 μL of PBS. The radioactivity in each well is measured using a Top Count NXT radioactivity counter (Packard).
The background is determined by measuring the radioactivity in four different wells containing radioactive ATP and the substrate alone.
A total activity control is measured in four different wells containing all the reagents (γ^33P-[ATP], KDR and substrate PLCγ), but in the absence of compound.
The inhibition of the KDR activity with the compound of the invention is expressed as a percentage of inhibition of the control activity determined in the absence of compound.

T2 sequence (Q05397 whole entry): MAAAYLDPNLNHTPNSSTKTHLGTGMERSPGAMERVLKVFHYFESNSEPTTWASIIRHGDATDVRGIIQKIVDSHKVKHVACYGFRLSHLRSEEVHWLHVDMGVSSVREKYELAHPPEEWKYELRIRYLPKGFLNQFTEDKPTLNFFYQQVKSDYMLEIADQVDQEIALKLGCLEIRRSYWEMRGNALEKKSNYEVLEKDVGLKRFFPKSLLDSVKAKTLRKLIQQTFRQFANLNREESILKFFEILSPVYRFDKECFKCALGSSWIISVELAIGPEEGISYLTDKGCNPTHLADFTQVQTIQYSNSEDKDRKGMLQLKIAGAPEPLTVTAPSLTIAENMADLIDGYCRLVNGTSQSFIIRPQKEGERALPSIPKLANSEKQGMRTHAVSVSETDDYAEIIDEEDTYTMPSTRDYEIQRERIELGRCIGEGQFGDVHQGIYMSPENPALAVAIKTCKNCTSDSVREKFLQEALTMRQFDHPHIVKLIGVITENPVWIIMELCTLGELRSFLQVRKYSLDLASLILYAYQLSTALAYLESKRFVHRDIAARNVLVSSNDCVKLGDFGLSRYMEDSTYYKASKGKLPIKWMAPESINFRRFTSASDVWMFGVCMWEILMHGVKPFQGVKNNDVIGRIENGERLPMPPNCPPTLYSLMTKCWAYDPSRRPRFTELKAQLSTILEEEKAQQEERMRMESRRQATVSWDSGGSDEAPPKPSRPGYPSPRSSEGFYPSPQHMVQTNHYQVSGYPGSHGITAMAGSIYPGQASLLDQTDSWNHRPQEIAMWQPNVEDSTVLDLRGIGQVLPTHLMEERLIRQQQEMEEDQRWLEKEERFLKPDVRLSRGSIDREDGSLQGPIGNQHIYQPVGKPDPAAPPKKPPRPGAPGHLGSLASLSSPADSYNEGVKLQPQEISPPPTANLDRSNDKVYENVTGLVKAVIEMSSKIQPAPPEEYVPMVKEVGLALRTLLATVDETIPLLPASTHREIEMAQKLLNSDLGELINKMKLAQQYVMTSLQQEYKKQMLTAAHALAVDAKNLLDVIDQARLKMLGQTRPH
T1 sequence (Q02763 776-1124): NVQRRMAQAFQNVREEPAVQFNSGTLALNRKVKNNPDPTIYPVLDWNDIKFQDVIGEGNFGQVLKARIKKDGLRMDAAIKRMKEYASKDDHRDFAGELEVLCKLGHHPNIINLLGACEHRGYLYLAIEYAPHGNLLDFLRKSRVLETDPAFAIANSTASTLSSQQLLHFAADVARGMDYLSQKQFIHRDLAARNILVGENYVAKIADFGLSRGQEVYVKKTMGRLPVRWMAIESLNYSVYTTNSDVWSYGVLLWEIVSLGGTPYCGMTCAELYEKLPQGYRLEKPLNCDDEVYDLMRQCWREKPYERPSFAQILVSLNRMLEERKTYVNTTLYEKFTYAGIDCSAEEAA
T3 sequence (P35968 786-1356 limits assumed): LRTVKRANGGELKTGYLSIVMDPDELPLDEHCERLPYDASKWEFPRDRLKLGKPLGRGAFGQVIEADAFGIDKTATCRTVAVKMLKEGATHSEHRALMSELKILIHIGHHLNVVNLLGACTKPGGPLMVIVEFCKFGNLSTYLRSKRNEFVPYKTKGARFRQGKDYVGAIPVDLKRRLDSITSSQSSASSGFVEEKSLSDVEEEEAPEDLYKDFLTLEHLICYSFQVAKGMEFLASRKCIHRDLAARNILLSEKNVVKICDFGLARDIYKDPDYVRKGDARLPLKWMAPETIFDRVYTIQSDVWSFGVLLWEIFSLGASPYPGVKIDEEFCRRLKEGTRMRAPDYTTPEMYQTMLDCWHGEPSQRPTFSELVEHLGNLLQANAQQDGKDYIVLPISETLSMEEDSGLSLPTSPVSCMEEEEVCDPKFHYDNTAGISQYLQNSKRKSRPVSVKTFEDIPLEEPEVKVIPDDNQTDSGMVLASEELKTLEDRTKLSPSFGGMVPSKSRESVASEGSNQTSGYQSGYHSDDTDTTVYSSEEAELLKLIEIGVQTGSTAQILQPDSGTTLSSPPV

By melting point is commonly meant the temperature of the solid-liquid transition. As for `Nc1n[nH]c2ccnc(-c3ccc(NC(=O)Nc4ccccc4)cc3)c12` [Example 8, 1-[4-(3-Amino-1H-pyrazolo[4,3-c]pyrid-4-yl]phenyl]-3-phenylurea], the melting point is 188 °C. In the case of `Nc1n[nH]c2cncc(-c3ccc(NC(=O)Nc4cc(C(F)(F)F)ccc4F)cc3)c12` [Example 7, 1-[4-(3-Amino-1H-pyrazolo[3,4-c]pyrid-4-yl)phenyl]-3-(2-fluoro-5-trifluoromethylphenyl)urea], the melting point is 196 °C. The IC50 on human Tie2 is 9 nM. `COc1ccc(C(F)(F)F)cc1NC(=O)Nc1ccc(-c2ccnc3[nH]nc(N)c23)cc1` [Example 5, 1-[4-(3-Amino-1H-pyrazolo[3,4-b]pyrid-4-yl)phenyl]-3-(2-methoxy-5-trifluoromethylphenyl)urea] came in with a melting point greater than 260 °C. In addition, on human FAK, the IC50 came to 286 nM. Further, at human KDR enzyme, the IC50 came out at 49 nM. For the same molecule, the IC50 at human Tie2 amounted to 15 nM. For `Cc1ccc(F)c(NC(=O)Nc2ccc(-c3nccc4[nH]nc(N)c34)cc2)c1` [Example 27, 1-[4-(3-Amino-1H-pyrazolo[4,3-c]pyrid-4-yl)phenyl]-3-(2-fluoro-5-methylphenyl-)urea], the melting point was found to be 195 °C.

In turn, `COc1ccc(C(F)(F)F)cc1NC(=O)Nc1ccc(-c2cncc3[nH]nc(N)c23)cc1` [Example 38, 1-[4-(3-Amino-1H-pyrazolo[3,4-c]pyrid-4-yl)phenyl]-3-(2-methoxy-5-trifluoromethylphenyl]urea] registered a melting point of 210 °C. Same read-out and setting: next, `Cc1ccc(F)cc1NC(=O)Nc1ccc(-c2nccc3[nH]nc(N)c23)cc1` [Example 34, 1-[4-(3-Amino-1H-pyrazolo[4,3-c]pyrid-4-yl)phenyl]-3-(5-fluoro-2-methylphenyl)urea]: greater than 265 °C. Consider `Nc1n[nH]c2ccnc(-c3ccc(NC(=O)Nc4cc(C(F)(F)F)ccc4F)nc3)c12` [Example 4, 1-[5-(3-Amino-1H-pyrazolo[4,3-c]pyrid-4-yl)pyrid-2-yl]-3-(2-fluoro-5-trifluoromethylphenyl)urea], for which the IC50 on human FAK came to 80 nM; on human KDR enzyme it was 218 nM; at human Tie2 it was 4 nM. Turning to `COc1ccc(C(F)(F)F)cc1NC(=O)Nc1ccc(-c2ccnc3[nH]nc(N)c23)cn1` [Example 6, 1-[5-(3-Amino-1H-pyrazolo[3,4-b]pyrid-4-yl)pyrid-2-yl]-3-(2-methoxy-5-trifluoromethylphenyl)urea], the melting point was greater than 260 °C. For the same molecule, the IC50 on human FAK amounted to 190 nM. For the same molecule, the IC50 at human KDR enzyme is 1860 nM. For the same molecule, the IC50 on human Tie2 came out at 27 nM.

As to `CC(=O)Nc1ccc(C(F)(F)F)cc1NC(=O)Nc1ccc(-c2nccc3[nH]nc(N)c23)cc1` [Example 11, N-(2-{3-[4-(3-Amino-1H-pyrazolo[4,3-c]pyrid-4-yl)phenyl]ureido}-4-trifluoromethylphenyl)acetamide], the melting point was found to be 182 °C. Consider `Nc1n[nH]c2ccnc(-c3ccc(NC(=O)Nc4cc(C(F)(F)F)ccc4F)cc3)c12` [Example 3, 1-[4-(3-Amino-1H-pyrazolo[4,3-c]pyrid-4-yl)phenyl]-3-(2-fluoro-5-trifluoromethylphenyl)urea], for which the IC50 at human FAK was found to be 73 nM; on human KDR enzyme, 33 nM; at human Tie2 it was 5 nM. For `Nc1n[nH]c2nccc(-c3ccc(NC(=O)Nc4cc(C(F)(F)F)ccc4F)cc3)c12` [Example 1, 1-[4-(3-Amino-1H-pyrazolo[3,4-b]pyrid-4-yl)phenyl]-3-(2-fluoro-5-trifluoromethylphenyl)urea], at human FAK, the IC50 came to 264 nM.

Turning to `COc1ccc(C(F)(F)F)cc1NC(=O)Nc1ccc(-c2nccc3[nH]nc(N)c23)cc1` [Example 10, 1-[4-(3-Amino-1H-pyrazolo[4,3-c]pyrid-4-yl)phenyl]-3-(2-methoxy-5-trifluoromethylphenyl)urea], the melting point is 200 °C. At human KDR enzyme, the IC50 was determined as 60 nM. Further, the IC50 at human Tie2 came out at 10 nM. `Nc1n[nH]c2nccc(-c3ccc(NC(=O)Nc4cc(C(F)(F)F)ccc4F)nc3)c12` [Example 2, 1-[5-(3-Amino-1H-pyrazolo[3,4-b]pyrid-4-yl)pyrid-2-yl]-3-(2-fluoro-5-trifluoromethylphenyl)urea]: the results for the IC50 on human FAK, at human KDR enzyme and on human Tie2 were 150 nM, 940 nM and 23 nM, respectively. In the case of `CCOc1ccc(C(F)(F)F)cc1NC(=O)Nc1ccc(-c2ccnc3[nH]nc(N)c23)cc1` [Example 14, 1-[4-(3-Amino-1H-pyrazolo[3,4-b]pyrid-4-yl)phenyl]-3-(2-ethoxy-5-trifluoromethylphenyl)urea], the results for the IC50 on human KDR enzyme and at human Tie2 were 24 nM and 21 nM, respectively. `COc1ccc(C(C)(C)C)cc1NC(=O)Nc1ccc(-c2nccc3[nH]nc(N)c23)cc1` [Example 29, 1-[4-(3-Amino-1H-pyrazolo[4,3-c]pyrid-4-yl)phenyl]-3-(5-tert-butyl-2-methoxyphenyl)urea] gave a melting point of 181 °C. In turn, `COc1ccc(C(F)(F)F)cc1NC(=O)Nc1ccc(-c2nccc3[nH]nc(N)c23)cn1` [Example 9, 1-[5-(3-Amino-1H-pyrazolo[4,3-c]pyrid-4-yl)pyrid-2-yl]-3-(2-methoxy-5-trifluoromethylphenyl)urea] returned a melting point of 228 °C. The same measure, in the same setting: to `Nc1n[nH]c2ccnc(-c3ccc(NC(=O)Nc4cc(F)ccc4F)cc3)c12` [Example 32, 1-[4-(3-Amino-1H-pyrazolo[4,3-c]pyrid-4-yl)phenyl]-3-(2,5-difluorophenyl)urea] belongs 187 °C.
